Read-outs that look alike come from different tables or passages of the source.
Legend:
[1] = Hepatocyte stability assay, human; type: in vitro ADME; conditions: human, hepatocytes; for hepatocyte CLint at 10 μM: Hepatocyte stability Clint; for half-life at 10 μM: Hepatocyte stability T½
How it was run: (§1)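 Metabolic stability was measured as depletion of 10 μM compound in thawed hepatocytes (0.5×10^6 cells/mL, 37° C, up to 60 min). Intrinsic clearance came from the slope of log-transformed percentage remaining.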

[2] = system: IL-1β cytokine output from THP-1s; assay: THP-1 AlphaLISA IL-1β cytokine inhibition assay; type: cell-based; conditions: Homo sapiens
How it was run: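 IL-1β release by AlphaLISA, expressed as % inhibition against +/− LPS controls on each plate. Differentiation: PMA, 72 h. Sequence: 30 min compound pre-treatment, LPS 24 h, Nigericin 1 h before supernatant harvest, all at 37° C./5% CO2.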

[3] = system: NRF2 (nuclear factor erythroid 2-related factor 2); assay: NRF2 +/-GSH activation assay (DiscoverX PathHunter NRF2 translocation kit, U2OS cells); type: cell-based; conditions: for NRF2 activation +GSH Emax / NRF2 activation −GSH Emax / −GSH Emax: normalised to DMF high control
How it was run: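 Activation is expressed as percent of plate DMF (high) versus no-DMF (low) controls, from luminescence after 6 h compound exposure at 37 °C of U2OS PathHunter cells. The +GSH condition used compound pre-incubated 30 min in 6 mM working GSH; −GSH cells received compound directly.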

[4] = system: IL-6 cytokine output from THP-1s; assay: THP-1 AlphaLISA IL-6 cytokine inhibition assay; type: cell-based; conditions: Homo sapiens, LPS then nigericin
How it was run: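 THP-1 cells differentiated with PMA for 72 h, then pre-incubated with compound 30 min, stimulated with LPS 24 h, then Nigericin 1 h, all at 37° C. Supernatant IL-6 measured by AlphaLISA. Percentage inhibition normalized to +/− LPS plate controls.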

[5] = Hepatocyte stability assay, mouse; type: in vitro ADME; conditions: mouse, hepatocytes; for hepatocyte CLint at 10 μM: Hepatocyte stability Clint; for half-life at 10 μM: Hepatocyte stability T½
How it was run: as §1

[6] = THP-1, differentiated THP-1 cells, LPS then nigericin
[7] = +GSH, 30 minute compound-GSH pre-incubation, read-out: NRF2 activation +GSH EC50
[8] = −GSH, U2OS PathHunter cells, 6 hours compound treatment, read-out: NRF2 activation −GSH EC50
[9] = THP-1, differentiated THP-1 cells
[10] = THP-1, Table 3, head to head comparison of exo vs endo double bond compounds
[11] = −GSH, Table 5 exo vs endo comparison, read-out: −GSH EC50
[12] = −GSH, Table 5 exo vs endo comparison

| Structure (SMILES) | hepatocyte CLint at 10 μM [1] [µL/min/1e6 cells] | half-life at 10 μM [1] [min] | IC50 [2, 6] [µM] | EC50 [3, 7] [µM] | NRF2 activation +GSH Emax ([3]; +GSH) [%] | EC50 [3, 8] [µM] | NRF2 activation −GSH Emax ([3]; −GSH) [%] | IC50 [4, 9] [µM] | hepatocyte CLint at 10 μM [5] [µL/min/1e6 cells] | half-life at 10 μM [5] [min] | IC50 [2, 10] [µM] | EC50 [3, 11] [µM] | −GSH Emax [3, 12] [%] | IC50 ([4]; differentiated THP-1 cells) [µM] |
| --- | --- | --- | --- | --- | --- | --- | --- | --- | --- | --- | --- | --- | --- | --- |
| C=C(Cc1nc(C(F)(F)c2ccc(Cl)cc2)no1)C(=O)O [Example 74, 2-((3-((4-chlorophenyl)difluoromethyl)-1,2,4-oxadiazol-5-yl)methyl)acrylic acid] | < 3 | > 430 | 6.4 | 44.4 | 65 | 24.4 | 174 | 9 | 31 | 47 | – | – | – | – |
| C=C(Cc1nc(-c2ccc(CCCCC(F)(F)F)cc2)no1)C(=O)O [Example 75, 2-((3-(4-(5,5,5-trifluoropentyl)phenyl)-1,2,4-oxadiazol-5-yl)methyl)acrylic acid] | 80 | 15 | 13.7 | 7.1 | 188 | 4.8 | 263 | 3.1 | 480 | 4 | – | – | – | – |
| C=C(Cc1nc(C2(c3ccc(S(F)(F)(F)(F)F)cc3)CC2)no1)C(=O)O [Example 77, 2-((3-(1-(4-(pentafluoro-λ^6-sulfaneyl)phenyl)cyclopropyl)-1,2,4-oxadiazol-5-yl)methyl)acrylic acid] | < 3 | > 460 | 7.6 | 52.7 | 69 | 48.1 | 210 | 14.6 | 10 | 189 | 7.6 | 48.1 | 210 | – |
| C=C(Cc1nc(-c2ccc(C(F)(F)CCCC)cc2)no1)C(=O)O [Example 79, 2-((3-(4-(1,1-difluoropentyl)phenyl)-1,2,4-oxadiazol-5-yl)methyl)acrylic acid] | 147 | 11 | 6.7 | 2.1 | 181 | 1.8 | 271 | 2.2 | > 460 | < 3 | – | – | – | – |
| C=C(Cc1noc(C(F)(F)CCCCCCC)n1)C(=O)O [Example 83, 2-((5-(1,1-difluorooctyl)-1,2,4-oxadiazol-3-yl)methyl)acrylic acid] | 263 | 5 | 3.1 | 3.8 | 161 | 3 | 185 | 3.4 | > 460 | < 3 | – | – | – | – |
| C=C(Cc1noc(C(F)(F)c2ccc(Br)cc2)n1)C(=O)O [Example 85, 2-((5-((4-bromophenyl)difluoromethyl)-1,2,4-oxadiazol-3-yl)methyl)acrylic acid] | 20 | 77 | 13.6 | 34.7 | 208 | 21.6 | 282 | – | 131 | 13 | – | – | – | 18.5 |
| C=C(Cc1nc(C2(c3ccc(SC(F)(F)F)cc3)CC2)no1)C(=O)O [Example 86, 2-((3-(1-(4-((trifluoromethyl)thio)phenyl)cyclopropyl)-1,2,4-oxadiazol-5-yl)methyl)acrylic acid] | 7 | 235 | 8.4 | 35 | 221 | 18 | 320 | 9.4 | 17 | 103 | 8.4 | 18 | 320 | – |
| C=C(Cc1nc(C(F)(F)CCCCCCC)no1)C(=O)O [Example 88, 2-((3-(1,1-difluorooctyl)-1,2,4-oxadiazol-5-yl)methyl)acrylic acid] | 134 | 12 | 3.1 | 3 | 205 | 2.8 | 237 | 2.8 | > 460 | < 3 | – | – | – | – |
| C=C(Cc1noc(C2(c3ccc(Br)cc3)CC2)n1)C(=O)O [Example 89, 2-((5-(1-(4-bromophenyl)cyclopropyl)-1,2,4-oxadiazol-3-yl)methyl)acrylic acid] | 38 | 41 | 12.2 | 42.2 | 63 | 30.7 | 99 | – | 336 | 5 | – | – | – | 33.4 |
| C=C(Cc1nc(C(F)(F)c2ccc(Br)cc2)no1)C(=O)O [Example 90, 2-((3-((4-bromophenyl)difluoromethyl)-1,2,4-oxadiazol-5-yl)methyl)acrylic acid] | 7 | 206 | 3.4 | 44 | 130 | 45.3 | 172 | 15.7 | 34 | 56 | – | – | – | – |
| C=C(Cc1nc(C(F)(F)c2ccc(CCCC)cc2)no1)C(=O)O [Example 91, 2-((3-((4-butylphenyl)difluoromethyl)-1,2,4-oxadiazol-5-yl)methyl)acrylic acid] | 74 | 21 | 3.8 | 3.4 | 190 | 3.2 | 231 | – | 320 | 6 | – | – | – | 2.4 |
| C=C(Cc1nc(Cc2ccc(C(F)(F)CCCC)cc2)no1)C(=O)O [Example 93, 2-((3-(4-(1,1-difluoropentyl)benzyl)-1,2,4-oxadiazol-5-yl)methyl)acrylic acid] | 40 | 38 | 16.1 | 14.3 | 190 | 12.6 | 224 | 8.7 | > 460 | < 3 | – | – | – | – |
| C=C(Cc1cc(CCCCCCCC)on1)C(=O)O [Example 102, 2-((5-octylisoxazol-3-yl)methyl)acrylic acid] | > 460 | < 3 | 7.4 | 9.5 | 230 | 7.2 | 342 | – | > 460 | < 3 | – | – | – | 5.2 |
